In brackets after ≈: the same amount, converted by molar mass.
Tests used:
[1] = test system: MRSA (Staphylococcus aureus) BK12064; assay: MIC, MRSA BK12064; conditions: Staphylococcus aureus, MRSA, 24 h
[2] = test system: Streptococcus sp., BK12233; assay: MIC, Streptococcus sp., BK12233; conditions: Streptococcus, 24 h
[3] = test system: clinical isolates of bacteria and fungus (including yeasts); assay: General antimicrobial activity, semi-quantitative score on collection of clinical isolates; type: cell-based; for General antimicrobial activity: key: −: indicating no activity; +++++: indicating highest activity
Protocol: The growth inhibitory effect of a number of various ITC compounds were tested on large collection of clinical isolates of bacteria and fungus (including yeasts), in order to establish a systematic structure-activity relationship for the ITC compounds. […] To assess the average activity for an individual ITC compound, the semi-quantitative score was calculated for each compound based on the number of sensitive bacterial strains at concentrations of 100 and 200 μM.

[4] = test system: Enterococcus sp., BK11936; assay: MIC, Enterococcus sp., BK11936; conditions: Enterococcus, 24 h
Escherichia coli K12 = assay: MIC, Escherichia coli K12; conditions: Escherichia coli, K12, 24 h
[5] = test system: Acinetobacter sp., BK12787; assay: MIC, Acinetobacter sp., BK12787; conditions: Acinetobacter, 24 h
[6] = test system: MRSA (Staphylococcus aureus) BK12060; assay: MIC, MRSA BK12060; conditions: Staphylococcus aureus, MRSA, 24 h
M. avium = assay: MIC, M. avium; type: cell-based; conditions: Mycobacterium avium; M. avium; read-out: MIC
[7] = test system: Enterococcus sp., BK11940; assay: MIC, Enterococcus sp., BK11940; conditions: Enterococcus, 24 h
M. tuberculosis H37Rv = assay: MIC, M. tuberculosis H37Rv; type: cell-based; conditions: Mycobacterium tuberculosis, read-out: MIC
Protocol: (§1) Next, several of the bifunctional ITC compounds were tested for their ability to inhibit the growth of some clinical isolates of Mycobacteria, the results of which are summarized in Table 3 below.

[8] = test system: Acinetobacter sp., BK12786; assay: MIC, Acinetobacter sp., BK12786; conditions: Acinetobacter, 24 h
[9] = test system: Klebsiella pneumonii BK12261; assay: MIC, Klebsiella pneumonii BK12261; conditions: Klebsiella, BK12261, 24 h
M. tuberculosis 210 = assay: MIC, M. tuberculosis 210; type: cell-based; conditions: Mycobacterium tuberculosis, read-out: MIC
Protocol: as §1

[10] = test system: Enterobacter cloacii BK12313; assay: MIC, Enterobacter cloacii BK12313; conditions: Enterobacter, BK12313, 24 h
M. tuberculosis W4 = assay: MIC, M. tuberculosis W4; type: cell-based; conditions: Mycobacterium tuberculosis, read-out: MIC
Protocol: as §1

M. tuberculosis AB = assay: MIC, M. tuberculosis AB; type: cell-based; conditions: Mycobacterium tuberculosis, read-out: MIC
Protocol: as §1

[11] = test system: Bacillus subtilis BK11590; assay: MIC, Bacillus subtilis BK11590; type: cell-based; conditions: Gram +, 24 hours of incubation, read-out: MIC
[12] = test system: Pseudomonas aeruginosa BK12348; assay: MIC, Pseudomonas aeruginosa BK12348; conditions: Pseudomonas aeruginosa, BK12348, 24 h
[13] = test system: Enterobacter cloacii BK12315; assay: MIC, Enterobacter cloacii BK12315; conditions: Enterobacter, BK12315, 24 h
Shigella sp., BK 12441 = assay: MIC, Shigella sp., BK 12441; type: cell-based; conditions: Gram −, 24 hours of incubation, read-out: MIC
[14] = test system: Staphylococcus epidermidis BK12798; assay: MIC, Staphylococcus epidermidis BK12798; conditions: Staphylococcus epidermidis, BK12798, 24 h
[15] = test system: Serattia marcescens BK12426; assay: MIC, Serattia marcescens BK12426; conditions: 24 h
M. cansassi = assay: MIC, M. cansassi; type: cell-based; conditions: M. cansassi; read-out: MIC
M. bovis BCG = assay: microbe, parasite or virus in culture; type: cell-based; conditions: Mycobacterium tuberculosis variant bovis BCG, BCG
M. tuberculosis P = assay: MIC, M. tuberculosis P; type: cell-based; conditions: Mycobacterium tuberculosis, read-out: MIC
Protocol: as §1

[16] = test system: Streptococcus sp., BK12235; assay: MIC, Streptococcus sp., BK12235; conditions: Streptococcus, 24 h
Escherichia coli BK12336 = assay: MIC, Escherichia coli BK12336; conditions: Escherichia coli, BK12336, 24 h
M. tuberculosis CDC1551 = assay: MIC, M. tuberculosis CDC1551; type: cell-based; conditions: Mycobacterium tuberculosis, read-out: MIC
Protocol: as §1

M. intracellularie = assay: MIC, M. intracellularie; type: cell-based; conditions: M. intracellularie; read-out: MIC
[17] = test system: Staphylococcus epidermidis BK12799; assay: MIC, Staphylococcus epidermidis BK12799; conditions: Staphylococcus epidermidis, BK12799, 24 h
[18] = test system: Pseudomonas aeruginosa BK12347; assay: MIC, Pseudomonas aeruginosa BK12347; conditions: Pseudomonas aeruginosa, BK12347, 24 h
[19] = test system: Klebsiella pneumonii BK12260; assay: MIC, Klebsiella pneumonii BK12260; conditions: Klebsiella, BK12260, 24 h
M. fortuitum = assay: MIC, M. fortuitum; type: cell-based; conditions: Mycolicibacterium fortuitum; M. fortuitum; read-out: MIC
Shigella sp., BK 12440 = assay: MIC, Shigella sp., BK 12440; type: cell-based; conditions: Gram −, 24 hours of incubation, read-out: MIC
[20] = test system: Serattia marcescens BK12421; assay: MIC, Serattia marcescens BK12421; conditions: 24 h
M. tuberculosis W = assay: MIC, M. tuberculosis W; type: cell-based; conditions: Mycobacterium tuberculosis, read-out: MIC
Protocol: as §1

M. scrofulaceum = assay: MIC, M. scrofulaceum; type: cell-based; conditions: Mycobacterium scrofulaceum; M. scrofulaceum; read-out: MIC

SMILES: S=C=NCc1ccc(CN=C=S)cc1 [Compound 37]
- MIC [1]: 4 µg/mL (≈ 18.2 µM)
- MIC [2]: < 0.5 µg/mL
- MIC ([3]; read-out: MIC values towards the microorganisms): 1 to 4 µg/mL (≈ 4.54 to 18.2 µM)
- General antimicrobial activity ([3]; semi-quantitative score from number of sensitive bacterial strains at 100 and 200 μM, deduced from number of sensitive bacterial species and average MIC): +++++
- MIC [4]: 16 µg/mL (≈ 72.6 µM)
- MIC (Escherichia coli K12): 16 µg/mL (≈ 72.6 µM)
- MIC [5]: > 64 µg/mL
- MIC [6]: 8 µg/mL (≈ 36.3 µM)
- MIC (M. avium): 32 µg/mL (≈ 145 µM)
- MIC [7]: 16 µg/mL (≈ 72.6 µM)
- MIC (M. tuberculosis H37Rv): 2 µg/mL (≈ 9.08 µM)
- MIC [8]: > 64 µg/mL
- MIC [9]: > 64 µg/mL
- MIC (M. tuberculosis 210): 2 µg/mL (≈ 9.08 µM)
- MIC [10]: > 64 µg/mL
- MIC (M. tuberculosis W4): 2 µg/mL (≈ 9.08 µM)
- MIC (M. tuberculosis AB): 2 µg/mL (≈ 9.08 µM)
- MIC [11]: 4 µg/mL (≈ 18.2 µM)
- MIC [12]: > 64 µg/mL
- MIC [13]: > 64 µg/mL
- MIC (Shigella sp., BK 12441): 16 µg/mL (≈ 72.6 µM)
- MIC [14]: 0.5 µg/mL (≈ 2.27 µM)
- MIC [15]: 64 µg/mL (≈ 290 µM)
- MIC (M. cansassi): 4 µg/mL (≈ 18.2 µM)
- MIC (M. bovis BCG): 2 µg/mL (≈ 9.08 µM)
- MIC (M. tuberculosis P): 2 µg/mL (≈ 9.08 µM)
- MIC [16]: < 0.5 µg/mL
- MIC (Escherichia coli BK12336): 8 to 16 µg/mL (≈ 36.3 to 72.6 µM)
- MIC (M. tuberculosis CDC1551): 4 µg/mL (≈ 18.2 µM)
- MIC (M. intracellularie): 32 µg/mL (≈ 145 µM)
- MIC [17]: 0.5 µg/mL (≈ 2.27 µM)
- MIC [18]: > 64 µg/mL
- MIC [19]: > 64 µg/mL
- MIC (M. fortuitum): 32 µg/mL (≈ 145 µM)
- MIC (Shigella sp., BK 12440): 16 µg/mL (≈ 72.6 µM)
- MIC [20]: 64 µg/mL (≈ 290 µM)
- MIC (M. tuberculosis W): 1 µg/mL (≈ 4.54 µM)
- MIC (M. scrofulaceum): 16 µg/mL (≈ 72.6 µM)

— US9586907B2, “Isothiocyanate compounds, pharmaceutical compositions, and uses thereof” (priority 2006, dated 2017)
